Test results from PubChem BioAssay (NCI).
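The compound was tested at five concentrations on cells cultured in 96-well plates, with a 48-hour exposure period. The concentration for 50% growth inhibition is given as GI50. TGI marks complete inhibition of growth.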

What follows are compounds tested on PC-3 prostate (assay: growth of human tumour cells (NCI), 48 h).

O=c1[nH]c2ccc(CC(=S)N3CCCCC3)cc2s1 and O=c1cc(N2CCCC2)[nH]c(=O)n1-c1ccc(Cl)cc1 cannot be ordered by TGI: greater than 100 µM for the first, greater than 100 µM for the second.

First: CCCCCCCCCCCCCCCC1(OC)C[N+](C)(C)CCO1 (configuration not stated)
Second: CC/C(=C\c1ccc(OC)cc1)c1ccc(OC)cc1
The TGI of the first is lower: 6.21 µM for the first, greater than 100 µM for the second.

O=C(Nc1cccc(C(F)(F)F)c1)c1cc2ccccc2cc1O and C=CCNC(=S)/N=C/C(C(=O)Nc1ccccc1C)=C(\C)O cannot be ordered by TGI: greater than 25.6 µM for the first, greater than 100 µM for the second.

N#Cc1nc(/C=C/c2cccnc2)oc1N showed a TGI greater than 100 µM.

Work on O=C(Nc1cccc(C(F)(F)F)c1)c1cc2ccccc2cc1O yielded a GI50 of 1.93 µM.

Each compound was assayed on NCI-H522 lung (assay: growth of human tumour cells (NCI), 48 h).

O=c1cc(N2CCCC2)[nH]c(=O)n1-c1ccc(Cl)cc1 and O=C(Nc1cccc(C(F)(F)F)c1)c1cc2ccccc2cc1O cannot be ordered by TGI: greater than 100 µM for the first, greater than 19.9 µM for the second.

CC/C(=C\c1ccc(OC)cc1)c1ccc(OC)cc1 and C=CCNC(=S)/N=C/C(C(=O)Nc1ccccc1C)=C(\C)O cannot be ordered by TGI: greater than 100 µM for the first, greater than 100 µM for the second.

With N#Cc1nc(/C=C/c2cccnc2)oc1N the TGI was greater than 100 µM.

With O=C(Nc1cccc(C(F)(F)F)c1)c1cc2ccccc2cc1O the GI50 was 0.471 µM.

What follows are compounds tested on SK-MEL-2 melanoma (assay: growth of human tumour cells (NCI), 48 h).

O=c1[nH]c2ccc(CC(=S)N3CCCCC3)cc2s1 and O=c1cc(N2CCCC2)[nH]c(=O)n1-c1ccc(Cl)cc1 cannot be ordered by TGI: greater than 100 µM for the first, greater than 100 µM for the second.

First: CCCCCCCCCCCCCCCC1(OC)C[N+](C)(C)CCO1 (configuration not stated)
Second: CC/C(=C\c1ccc(OC)cc1)c1ccc(OC)cc1
The TGI of the first is lower: 7.63 µM for the first, greater than 100 µM for the second.

Going from O=C(Nc1cccc(C(F)(F)F)c1)c1cc2ccccc2cc1O to C=CCNC(=S)/N=C/C(C(=O)Nc1ccccc1C)=C(\C)O, the TGI rises from 18.7 µM to greater than 100 µM.

N#Cc1nc(/C=C/c2cccnc2)oc1N was tested, and the TGI was greater than 100 µM.

O=C(Nc1cccc(C(F)(F)F)c1)c1cc2ccccc2cc1O gave a GI50 of 2.7 µM.

Each compound was assayed on IGROV1 ovarian (assay: growth of human tumour cells (NCI), 48 h).

Compared with CCCCCCCCCCCCCCCC1(OC)C[N+](C)(C)CCO1 (configuration not stated), CC/C(=C\c1ccc(OC)cc1)c1ccc(OC)cc1 is higher in TGI: 3.16 µM for the first, greater than 100 µM for the second.

O=c1cc(N2CCCC2)[nH]c(=O)n1-c1ccc(Cl)cc1 and O=C(Nc1cccc(C(F)(F)F)c1)c1cc2ccccc2cc1O cannot be ordered by TGI: greater than 100 µM for the first, greater than 57.7 µM for the second.

N#Cc1nc(/C=C/c2cccnc2)oc1N and C=CCNC(=S)/N=C/C(C(=O)Nc1ccccc1C)=C(\C)O cannot be ordered by TGI: greater than 100 µM for the first, greater than 100 µM for the second.

Compound O=C(Nc1cccc(C(F)(F)F)c1)c1cc2ccccc2cc1O has a GI50 of 2.88 µM.

The compounds below were run on HOP-92 NSCLC (assay: growth of human tumour cells (NCI), 48 h).

First: O=c1cc(N2CCCC2)[nH]c(=O)n1-c1ccc(Cl)cc1
Second: O=C(Nc1cccc(C(F)(F)F)c1)c1cc2ccccc2cc1O
The TGI of the first is higher: greater than 100 µM for the first, 1.61 µM for the second.

CC/C(=C\c1ccc(OC)cc1)c1ccc(OC)cc1 and N#Cc1nc(/C=C/c2cccnc2)oc1N cannot be ordered by TGI: greater than 100 µM for the first, greater than 100 µM for the second.

For O=C(Nc1cccc(C(F)(F)F)c1)c1cc2ccccc2cc1O, the GI50 was 0.252 µM.

These compounds were tested on NCI/ADR-RES ovarian (assay: growth of human tumour cells (NCI), 48 h).

Compared with CCCCCCCCCCCCCCCC1(OC)C[N+](C)(C)CCO1 (configuration not stated), CC/C(=C\c1ccc(OC)cc1)c1ccc(OC)cc1 is higher in TGI: 41.7 µM for the first, greater than 100 µM for the second.

Compared with O=c1cc(N2CCCC2)[nH]c(=O)n1-c1ccc(Cl)cc1, O=C(Nc1cccc(C(F)(F)F)c1)c1cc2ccccc2cc1O is lower in TGI: greater than 100 µM for the first, 9.34 µM for the second.

N#Cc1nc(/C=C/c2cccnc2)oc1N and C=CCNC(=S)/N=C/C(C(=O)Nc1ccccc1C)=C(\C)O cannot be ordered by TGI: greater than 100 µM for the first, greater than 100 µM for the second.

O=C(Nc1cccc(C(F)(F)F)c1)c1cc2ccccc2cc1O showed a GI50 of 2.17 µM.

Each compound was assayed on K-562 leukemia (assay: growth of human tumour cells (NCI), 48 h).

O=c1[nH]c2ccc(CC(=S)N3CCCCC3)cc2s1 and O=c1cc(N2CCCC2)[nH]c(=O)n1-c1ccc(Cl)cc1 cannot be ordered by TGI: greater than 100 µM for the first, greater than 100 µM for the second.

O=C(Nc1cccc(C(F)(F)F)c1)c1cc2ccccc2cc1O and CC/C(=C\c1ccc(OC)cc1)c1ccc(OC)cc1 cannot be ordered by TGI: greater than 100 µM for the first, greater than 100 µM for the second.

N#Cc1nc(/C=C/c2cccnc2)oc1N and C=CCNC(=S)/N=C/C(C(=O)Nc1ccccc1C)=C(\C)O cannot be ordered by TGI: greater than 100 µM for the first, greater than 100 µM for the second.

In the case of O=C(Nc1cccc(C(F)(F)F)c1)c1cc2ccccc2cc1O, the GI50 is reported as 0.487 µM.

Each compound was assayed on BT-549 breast (assay: growth of human tumour cells (NCI), 48 h).

O=c1[nH]c2ccc(CC(=S)N3CCCCC3)cc2s1 and O=c1cc(N2CCCC2)[nH]c(=O)n1-c1ccc(Cl)cc1 cannot be ordered by TGI: greater than 100 µM for the first, greater than 100 µM for the second.

Compared with O=C(Nc1cccc(C(F)(F)F)c1)c1cc2ccccc2cc1O, CC/C(=C\c1ccc(OC)cc1)c1ccc(OC)cc1 is higher in TGI: 6.09 µM for the first, greater than 100 µM for the second.

C=CCNC(=S)/N=C/C(C(=O)Nc1ccccc1C)=C(\C)O gave a TGI greater than 100 µM.

O=C(Nc1cccc(C(F)(F)F)c1)c1cc2ccccc2cc1O was tested, and the GI50 was 1.27 µM.

The compounds below were run on HT29 colon (assay: growth of human tumour cells (NCI), 48 h).

First: CCCCCCCCCCCCCCCC1(OC)C[N+](C)(C)CCO1 (configuration not stated)
Second: CC/C(=C\c1ccc(OC)cc1)c1ccc(OC)cc1
The TGI of the first is lower: 2.56 µM for the first, greater than 100 µM for the second.

O=c1cc(N2CCCC2)[nH]c(=O)n1-c1ccc(Cl)cc1 and O=C(Nc1cccc(C(F)(F)F)c1)c1cc2ccccc2cc1O cannot be ordered by TGI: greater than 100 µM for the first, greater than 55.5 µM for the second.

N#Cc1nc(/C=C/c2cccnc2)oc1N and C=CCNC(=S)/N=C/C(C(=O)Nc1ccccc1C)=C(\C)O cannot be ordered by TGI: greater than 100 µM for the first, greater than 100 µM for the second.

O=C(Nc1cccc(C(F)(F)F)c1)c1cc2ccccc2cc1O gave a GI50 of 3.33 µM.

The compounds below were run on OVCAR-5 ovarian (assay: growth of human tumour cells (NCI), 48 h).

O=c1[nH]c2ccc(CC(=S)N3CCCCC3)cc2s1 and O=c1cc(N2CCCC2)[nH]c(=O)n1-c1ccc(Cl)cc1 cannot be ordered by TGI: greater than 100 µM for the first, greater than 100 µM for the second.

Going from CCCCCCCCCCCCCCCC1(OC)C[N+](C)(C)CCO1 (configuration not stated) to CC/C(=C\c1ccc(OC)cc1)c1ccc(OC)cc1, the TGI rises from 6.08 µM to greater than 100 µM.

O=C(Nc1cccc(C(F)(F)F)c1)c1cc2ccccc2cc1O and C=CCNC(=S)/N=C/C(C(=O)Nc1ccccc1C)=C(\C)O cannot be ordered by TGI: greater than 100 µM for the first, greater than 100 µM for the second.

With N#Cc1nc(/C=C/c2cccnc2)oc1N the TGI was greater than 100 µM.

O=C(Nc1cccc(C(F)(F)F)c1)c1cc2ccccc2cc1O gave a GI50 of 3.5 µM.

The compounds below were run on RXF 393 renal (assay: growth of human tumour cells (NCI), 48 h).

First: CCCCCCCCCCCCCCCC1(OC)C[N+](C)(C)CCO1 (configuration not stated)
Second: CC/C(=C\c1ccc(OC)cc1)c1ccc(OC)cc1
The TGI of the first is lower: 2.39 µM for the first, greater than 100 µM for the second.

O=c1cc(N2CCCC2)[nH]c(=O)n1-c1ccc(Cl)cc1 and O=C(Nc1cccc(C(F)(F)F)c1)c1cc2ccccc2cc1O cannot be ordered by TGI: greater than 100 µM for the first, greater than 30.4 µM for the second.

N#Cc1nc(/C=C/c2cccnc2)oc1N and C=CCNC(=S)/N=C/C(C(=O)Nc1ccccc1C)=C(\C)O cannot be ordered by TGI: greater than 100 µM for the first, greater than 100 µM for the second.

O=C(Nc1cccc(C(F)(F)F)c1)c1cc2ccccc2cc1O was tested, and the GI50 was 3.3 µM.

What follows are compounds tested on T-47D breast (assay: growth of human tumour cells (NCI), 48 h).

Going from CCCCCCCCCCCCCCCC1(OC)C[N+](C)(C)CCO1 (configuration not stated) to O=c1cc(N2CCCC2)[nH]c(=O)n1-c1ccc(Cl)cc1, the TGI rises from 33.6 µM to greater than 100 µM.

Compared with O=C(Nc1cccc(C(F)(F)F)c1)c1cc2ccccc2cc1O, C=CCNC(=S)/N=C/C(C(=O)Nc1ccccc1C)=C(\C)O is higher in TGI: 58 µM for the first, greater than 100 µM for the second.

N#Cc1nc(/C=C/c2cccnc2)oc1N was tested, and the TGI was greater than 100 µM.

Compound O=C(Nc1cccc(C(F)(F)F)c1)c1cc2ccccc2cc1O has a GI50 of 1.68 µM.

What follows are compounds tested on HL-60(TB) leukemia (assay: growth of human tumour cells (NCI), 48 h).

Compared with O=c1cc(N2CCCC2)[nH]c(=O)n1-c1ccc(Cl)cc1, O=C(Nc1cccc(C(F)(F)F)c1)c1cc2ccccc2cc1O is lower in TGI: greater than 100 µM for the first, 12.1 µM for the second.

N#Cc1nc(/C=C/c2cccnc2)oc1N and C=CCNC(=S)/N=C/C(C(=O)Nc1ccccc1C)=C(\C)O cannot be ordered by TGI: greater than 100 µM for the first, greater than 100 µM for the second.

O=C(Nc1cccc(C(F)(F)F)c1)c1cc2ccccc2cc1O was tested, and the GI50 was 1.15 µM.

The compounds below were run on SNB-75 CNS (assay: growth of human tumour cells (NCI), 48 h).

Going from CCCCCCCCCCCCCCCC1(OC)C[N+](C)(C)CCO1 (configuration not stated) to CC/C(=C\c1ccc(OC)cc1)c1ccc(OC)cc1, the TGI rises from 0.445 µM to greater than 100 µM.

O=c1cc(N2CCCC2)[nH]c(=O)n1-c1ccc(Cl)cc1 and O=C(Nc1cccc(C(F)(F)F)c1)c1cc2ccccc2cc1O cannot be ordered by TGI: greater than 100 µM for the first, greater than 39.7 µM for the second.

For N#Cc1nc(/C=C/c2cccnc2)oc1N, the TGI was greater than 100 µM.

For O=C(Nc1cccc(C(F)(F)F)c1)c1cc2ccccc2cc1O, the GI50 was 2.25 µM.

These compounds were tested on SF-268 CNS (assay: growth of human tumour cells (NCI), 48 h).

First: CCCCCCCCCCCCCCCC1(OC)C[N+](C)(C)CCO1 (configuration not stated)
Second: CC/C(=C\c1ccc(OC)cc1)c1ccc(OC)cc1
The TGI of the first is lower: 5.04 µM for the first, greater than 100 µM for the second.

O=c1cc(N2CCCC2)[nH]c(=O)n1-c1ccc(Cl)cc1 and O=C(Nc1cccc(C(F)(F)F)c1)c1cc2ccccc2cc1O cannot be ordered by TGI: greater than 100 µM for the first, greater than 100 µM for the second.

N#Cc1nc(/C=C/c2cccnc2)oc1N and C=CCNC(=S)/N=C/C(C(=O)Nc1ccccc1C)=C(\C)O cannot be ordered by TGI: greater than 100 µM for the first, greater than 100 µM for the second.

O=C(Nc1cccc(C(F)(F)F)c1)c1cc2ccccc2cc1O gave a GI50 of 2.7 µM.

These compounds were tested on KM12 colon (assay: growth of human tumour cells (NCI), 48 h).

Going from O=c1[nH]c2ccc(CC(=S)N3CCCCC3)cc2s1 to CCCCCCCCCCCCCCCC1(OC)C[N+](C)(C)CCO1 (configuration not stated), the TGI falls from greater than 100 µM to 1.96 µM.
